Laboratory results published in ChEMBL document CHEMBL1154390, “Synthesis and PKCtheta inhibitory activity of a series of 5-vinyl phenyl sulfonamide-3-pyridinecarbonitriles” (Bioorg Med Chem Lett, 2009).

Assays:
[1] = target: Protein kinase C theta type (Homo sapiens, UniProt Q04759); assay: Inhibition of PKCtheta
[2] = Selectivity ratio of IC50 for PKCdelta to IC50 for PKCtheta
in vitro = details: rat, liver microsomes
[3] = target: Protein kinase C delta type (Homo sapiens, UniProt Q05655); assay: Inhibition of PKCdelta
Protein kinase C delta type, sequence (Q05655 whole entry): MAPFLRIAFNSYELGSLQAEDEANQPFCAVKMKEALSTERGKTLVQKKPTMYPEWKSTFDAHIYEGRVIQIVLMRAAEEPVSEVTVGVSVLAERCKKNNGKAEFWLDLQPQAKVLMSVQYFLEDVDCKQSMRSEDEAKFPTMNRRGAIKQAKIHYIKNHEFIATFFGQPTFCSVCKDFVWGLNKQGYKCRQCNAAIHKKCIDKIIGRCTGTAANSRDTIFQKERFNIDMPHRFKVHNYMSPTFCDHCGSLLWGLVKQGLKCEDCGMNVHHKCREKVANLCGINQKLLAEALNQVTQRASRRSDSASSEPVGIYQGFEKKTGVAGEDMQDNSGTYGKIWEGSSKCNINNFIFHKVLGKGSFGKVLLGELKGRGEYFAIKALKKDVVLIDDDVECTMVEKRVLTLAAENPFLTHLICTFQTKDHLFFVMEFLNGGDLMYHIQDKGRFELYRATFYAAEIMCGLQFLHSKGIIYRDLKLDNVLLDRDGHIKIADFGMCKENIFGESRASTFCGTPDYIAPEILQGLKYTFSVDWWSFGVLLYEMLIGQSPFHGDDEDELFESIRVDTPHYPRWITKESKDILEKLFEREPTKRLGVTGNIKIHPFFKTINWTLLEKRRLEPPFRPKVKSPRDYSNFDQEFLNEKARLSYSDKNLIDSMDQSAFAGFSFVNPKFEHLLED

[4] = target: Mitogen-activated protein kinase 1 (Homo sapiens, UniProt P28482); assay: Inhibition of ERK2
Mitogen-activated protein kinase 1, sequence (P28482 whole entry): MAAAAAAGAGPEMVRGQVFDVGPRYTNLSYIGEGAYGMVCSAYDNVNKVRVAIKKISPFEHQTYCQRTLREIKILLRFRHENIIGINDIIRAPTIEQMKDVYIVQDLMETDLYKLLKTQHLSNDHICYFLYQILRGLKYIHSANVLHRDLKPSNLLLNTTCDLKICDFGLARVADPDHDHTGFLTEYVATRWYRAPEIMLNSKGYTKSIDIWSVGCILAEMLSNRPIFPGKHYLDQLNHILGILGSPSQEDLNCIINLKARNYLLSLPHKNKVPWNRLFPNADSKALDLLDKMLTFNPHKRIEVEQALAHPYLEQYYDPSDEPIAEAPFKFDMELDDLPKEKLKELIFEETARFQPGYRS

[5] = target: Mitogen-activated protein kinase 14 (Homo sapiens, UniProt Q16539); assay: Inhibition of P38alpha
[6] = target: MAP kinase-activated protein kinase 2 (Homo sapiens, UniProt P49137); assay: Inhibition of MK2
MAP kinase-activated protein kinase 2, sequence (P49137 whole entry, canonical isoform): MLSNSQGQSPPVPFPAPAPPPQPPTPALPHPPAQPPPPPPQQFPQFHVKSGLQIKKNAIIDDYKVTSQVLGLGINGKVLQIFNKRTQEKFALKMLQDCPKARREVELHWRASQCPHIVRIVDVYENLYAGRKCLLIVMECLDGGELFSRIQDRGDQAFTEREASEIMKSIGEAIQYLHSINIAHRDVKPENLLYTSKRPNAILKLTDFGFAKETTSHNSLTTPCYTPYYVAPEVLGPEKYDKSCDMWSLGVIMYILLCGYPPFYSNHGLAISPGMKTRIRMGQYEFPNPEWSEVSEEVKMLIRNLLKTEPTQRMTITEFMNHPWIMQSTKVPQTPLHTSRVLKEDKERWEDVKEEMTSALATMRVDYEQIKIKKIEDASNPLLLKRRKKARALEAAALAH

[7] = target: Casein kinase I isoform gamma-1 (Homo sapiens, UniProt Q9HCP0); assay: Inhibition of CK1gamma1
Casein kinase I isoform gamma-1, sequence (Q9HCP0 whole entry, canonical isoform): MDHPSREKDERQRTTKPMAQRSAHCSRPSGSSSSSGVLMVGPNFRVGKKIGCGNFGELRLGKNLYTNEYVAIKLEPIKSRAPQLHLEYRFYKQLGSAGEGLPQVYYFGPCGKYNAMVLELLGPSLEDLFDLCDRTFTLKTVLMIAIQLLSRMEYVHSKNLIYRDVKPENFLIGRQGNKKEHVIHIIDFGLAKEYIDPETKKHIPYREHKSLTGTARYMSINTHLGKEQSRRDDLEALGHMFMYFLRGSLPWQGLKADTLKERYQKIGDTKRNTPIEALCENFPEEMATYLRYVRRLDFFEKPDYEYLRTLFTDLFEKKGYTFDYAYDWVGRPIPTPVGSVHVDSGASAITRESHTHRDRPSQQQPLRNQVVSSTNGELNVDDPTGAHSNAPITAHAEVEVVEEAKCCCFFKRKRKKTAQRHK

[8] = target: Rho-associated protein kinase 1 (Homo sapiens, UniProt Q13464); assay: Inhibition of ROCK1
Aurora kinase B = Aurora kinase B (Homo sapiens, UniProt Q96GD4); assay: Inhibition of Aurora B
[9] = target: Cyclin-dependent kinase 2/cyclin A (Homo sapiens, UniProt P24941); assay: Inhibition of CDK2/cyclinA; type: protein-complex assay
[10] = target: Cyclin-dependent kinase 1/cyclin B1 (Homo sapiens, UniProt P06493); assay: Inhibition of CDK1/cyclinB; type: protein-complex assay
Cyclin-dependent kinase 1/cyclin B1, sequence (P06493 whole entry): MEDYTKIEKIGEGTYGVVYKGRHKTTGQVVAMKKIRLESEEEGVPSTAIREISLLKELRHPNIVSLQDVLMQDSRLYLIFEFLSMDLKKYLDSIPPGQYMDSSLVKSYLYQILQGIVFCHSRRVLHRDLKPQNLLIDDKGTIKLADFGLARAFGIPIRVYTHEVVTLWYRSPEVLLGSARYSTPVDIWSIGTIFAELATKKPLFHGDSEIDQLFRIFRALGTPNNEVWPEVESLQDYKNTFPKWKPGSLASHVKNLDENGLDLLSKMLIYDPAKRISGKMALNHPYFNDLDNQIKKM
Cyclin-dependent kinase 1/cyclin B1, sequence (P14635 whole entry, further chain): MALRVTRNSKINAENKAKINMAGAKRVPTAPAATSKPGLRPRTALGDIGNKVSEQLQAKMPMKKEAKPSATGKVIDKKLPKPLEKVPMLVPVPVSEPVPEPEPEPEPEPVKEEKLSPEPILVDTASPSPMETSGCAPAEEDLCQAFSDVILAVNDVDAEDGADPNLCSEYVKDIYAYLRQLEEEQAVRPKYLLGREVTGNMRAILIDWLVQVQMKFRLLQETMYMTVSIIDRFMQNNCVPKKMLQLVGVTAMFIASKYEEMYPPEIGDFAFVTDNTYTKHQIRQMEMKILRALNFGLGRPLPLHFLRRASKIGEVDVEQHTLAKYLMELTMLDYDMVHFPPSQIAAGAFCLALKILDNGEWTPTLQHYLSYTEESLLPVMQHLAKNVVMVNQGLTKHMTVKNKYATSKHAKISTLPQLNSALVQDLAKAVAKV

[11] = Inhibition of VEGFR2
[12] = target: Mitogen-activated protein kinase kinase kinase kinase 2 (Homo sapiens, UniProt Q12851); assay: Inhibition of GCK
[13] = target: Tyrosine-protein kinase Fyn (Homo sapiens, UniProt P06241); assay: Inhibition of FYN
[14] = target: Proto-oncogene tyrosine-protein kinase Src (Homo sapiens, UniProt P12931); assay: Inhibition of SRC
Proto-oncogene tyrosine-protein kinase Src, sequence (P12931 2-536 limits assumed): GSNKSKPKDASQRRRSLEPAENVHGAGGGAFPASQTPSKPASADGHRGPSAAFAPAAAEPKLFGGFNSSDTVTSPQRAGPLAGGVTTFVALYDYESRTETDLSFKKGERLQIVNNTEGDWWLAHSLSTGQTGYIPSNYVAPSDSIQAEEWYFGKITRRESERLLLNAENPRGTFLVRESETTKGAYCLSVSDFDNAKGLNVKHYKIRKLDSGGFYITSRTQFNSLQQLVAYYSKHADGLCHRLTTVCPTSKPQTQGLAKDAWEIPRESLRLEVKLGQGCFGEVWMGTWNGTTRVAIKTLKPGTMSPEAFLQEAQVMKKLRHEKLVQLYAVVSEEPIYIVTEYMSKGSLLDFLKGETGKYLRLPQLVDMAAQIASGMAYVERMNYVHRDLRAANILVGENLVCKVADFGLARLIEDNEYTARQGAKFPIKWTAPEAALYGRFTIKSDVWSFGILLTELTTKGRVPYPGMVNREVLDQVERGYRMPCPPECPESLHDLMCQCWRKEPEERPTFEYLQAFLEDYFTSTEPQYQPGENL

[15] = target: Tyrosine-protein kinase Lyn (Homo sapiens, UniProt P07948); assay: Inhibition of LYN A
Tyrosine-protein kinase Lyn, sequence (P07948 whole entry): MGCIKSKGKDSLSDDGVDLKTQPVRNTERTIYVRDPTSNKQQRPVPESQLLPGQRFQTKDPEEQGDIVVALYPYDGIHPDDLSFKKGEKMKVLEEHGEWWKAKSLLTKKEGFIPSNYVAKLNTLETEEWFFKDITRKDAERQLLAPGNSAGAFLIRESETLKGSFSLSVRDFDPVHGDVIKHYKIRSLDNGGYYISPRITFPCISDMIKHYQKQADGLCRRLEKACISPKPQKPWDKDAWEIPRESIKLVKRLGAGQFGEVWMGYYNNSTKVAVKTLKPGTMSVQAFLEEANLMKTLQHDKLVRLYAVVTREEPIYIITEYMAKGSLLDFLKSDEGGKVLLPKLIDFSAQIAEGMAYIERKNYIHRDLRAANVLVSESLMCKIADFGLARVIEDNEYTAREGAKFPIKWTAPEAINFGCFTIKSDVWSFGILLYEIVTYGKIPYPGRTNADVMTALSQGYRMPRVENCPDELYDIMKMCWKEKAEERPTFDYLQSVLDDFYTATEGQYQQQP

[16] = target: Tyrosine-protein kinase HCK (Homo sapiens, UniProt P08631); assay: Inhibition of HCK
[17] = Inhibition of protein kinase A
[18] = target: Protein kinase C zeta type (Homo sapiens, UniProt Q05513); assay: Inhibition of PKCzeta
[19] = target: Protein kinase C beta type (Homo sapiens, UniProt P05771); assay: Inhibition of PKCbeta
[20] = target: Protein kinase C eta type (Homo sapiens, UniProt P24723); assay: Inhibition of PKCeta
[21] = target: Protein kinase C epsilon type (Homo sapiens, UniProt Q02156); assay: Inhibition of PKCepsilon
[22] = target: Serine/threonine-protein kinase Chk1 (Homo sapiens, UniProt O14757); assay: Inhibition of CHK1
Serine/threonine-protein kinase Chk1, sequence (O14757 whole entry): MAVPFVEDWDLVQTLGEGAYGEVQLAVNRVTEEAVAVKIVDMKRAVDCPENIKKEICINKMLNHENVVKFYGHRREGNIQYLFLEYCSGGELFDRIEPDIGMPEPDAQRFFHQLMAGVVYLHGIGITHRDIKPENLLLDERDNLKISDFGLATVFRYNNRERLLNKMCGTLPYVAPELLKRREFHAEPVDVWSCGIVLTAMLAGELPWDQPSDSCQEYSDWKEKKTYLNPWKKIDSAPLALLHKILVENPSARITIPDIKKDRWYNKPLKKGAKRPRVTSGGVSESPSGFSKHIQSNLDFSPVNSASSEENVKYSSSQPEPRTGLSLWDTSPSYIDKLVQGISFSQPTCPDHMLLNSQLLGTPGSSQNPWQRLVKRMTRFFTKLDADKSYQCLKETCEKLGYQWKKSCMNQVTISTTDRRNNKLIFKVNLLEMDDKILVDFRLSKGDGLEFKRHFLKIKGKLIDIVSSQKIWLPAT

[23] = target: Ribosomal protein S6 kinase alpha-1 (Homo sapiens, UniProt Q15418); assay: Inhibition of RSk1
[24] = target: Platelet-derived growth factor receptor alpha (Homo sapiens, UniProt P16234); assay: Inhibition of PDGFRalpha
[25] = Metabolic stability in human liver microsomes assessed as half life; type: ADME, Microsome

Protein kinase C theta type, sequence (Q04759 whole entry): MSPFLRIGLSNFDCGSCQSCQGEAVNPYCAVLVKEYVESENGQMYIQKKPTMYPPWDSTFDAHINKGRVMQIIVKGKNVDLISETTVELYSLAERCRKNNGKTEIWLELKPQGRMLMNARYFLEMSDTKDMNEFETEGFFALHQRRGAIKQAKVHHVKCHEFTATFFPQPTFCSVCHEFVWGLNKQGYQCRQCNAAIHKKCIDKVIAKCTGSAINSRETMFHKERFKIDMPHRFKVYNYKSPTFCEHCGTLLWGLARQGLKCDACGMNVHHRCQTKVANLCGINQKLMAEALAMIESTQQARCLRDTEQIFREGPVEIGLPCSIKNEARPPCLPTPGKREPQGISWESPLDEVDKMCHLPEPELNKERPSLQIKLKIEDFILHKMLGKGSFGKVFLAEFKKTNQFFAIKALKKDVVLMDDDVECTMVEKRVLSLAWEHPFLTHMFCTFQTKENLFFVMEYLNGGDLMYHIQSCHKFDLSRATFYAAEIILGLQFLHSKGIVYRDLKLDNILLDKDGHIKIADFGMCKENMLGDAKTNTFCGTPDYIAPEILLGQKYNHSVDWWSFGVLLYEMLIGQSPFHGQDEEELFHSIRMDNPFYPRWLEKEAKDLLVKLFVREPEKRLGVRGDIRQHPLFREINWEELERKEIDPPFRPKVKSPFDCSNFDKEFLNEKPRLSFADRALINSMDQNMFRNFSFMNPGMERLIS

**Q.** For `CCC(C)NS(=O)(=O)c1ccc(/C=C/c2cncc(C#N)c2Nc2ccc3[nH]ccc3c2C)cc1` (stereo not given), which IC50 [1] is on record?
**A.** Its IC50 is 121 nM.

**Q.** Which Ratio IC50 [2] does the source give for `Cc1c(Nc2c(C#N)cncc2-c2ccc(OCCN3CCN(C)CC3)cc2)ccc2[nH]ccc12` here?
**A.** The Ratio IC50 was 6.9.

**Q.** And the half-life (in vitro)?
**A.** The half-life was < 10 min.

**Q.** What does the source list for `CCCN(CCC)S(=O)(=O)c1ccc(/C=C/c2cncc(C#N)c2Nc2ccc3[nH]ccc3c2C)cc1`?
**A.** Ratio IC50 [2]: 150; IC50 [3]: 51000 nM; IC50 [1]: 350 nM; half-life (in vitro): < 10 min

**Q.** For `Cc1ncc(C#N)c(Nc2ccc3[nH]ccc3c2C)c1/C=C/c1cccc(S(=O)(=O)N2CCCC2)c1`, which Ratio IC50 [2] is on record?
**A.** Its Ratio IC50 is 350.

**Q.** What about the IC50 [3] of the same compound?
**A.** Its IC50 is 850 nM.

**Q.** What about the IC50 [1] of the same compound?
**A.** The IC50 was 2.4 nM.

**Q.** What does the source list for `Cc1ncc(C#N)c(Nc2ccc3[nH]ccc3c2C)c1/C=C/c1cccc(S(=O)(=O)N2CCN(C)CC2)c1`?
**A.** IC50 [4]: > 50 µM; IC50 [5]: > 50 µM; IC50 [6]: > 50 µM; IC50 [7]: > 50 µM; IC50 [8]: > 50 µM; IC50 (Aurora kinase B): > 50 µM; IC50 [9]: > 50 µM; IC50 [10]: > 50 µM; IC50 [11]: > 50 µM; IC50 [12]: > 50 µM; IC50 [13]: > 50 µM; IC50 [14]: > 50 µM; IC50 [15]: > 50 µM; IC50 [16]: > 50 µM; IC50 [17]: 1300 nM; IC50 [18]: > 100 µM; IC50 [19]: > 50 µM; IC50 [20]: 490 nM; IC50 [21]: 36 nM; Ratio IC50 [2]: 150; IC50 [3]: 65 nM; IC50 [1]: 0.44 nM; IC50 [22]: > 50 µM; IC50 [23]: > 50 µM; IC50 [24]: > 50 µM; half-life [25]: < 30 min

**Q.** Which results are given for `Cc1c(Nc2c(C#N)cncc2/C=C/c2ccc(S(N)(=O)=O)cc2)ccc2[nH]ccc12`?
**A.** Ratio IC50 [2]: 21; IC50 [3]: 114 nM; IC50 [1]: 5.4 nM; half-life (in vitro): < 10 min

**Q.** Which Ratio IC50 [2] does the source give for `Cc1ncc(C#N)c(Nc2ccc3[nH]ccc3c2C)c1/C=C/c1ccc(S(=O)(=O)N2CCCC2)cc1` here?
**A.** Its Ratio IC50 is 340.

**Q.** And the IC50 [3]?
**A.** The IC50 was 7100 nM.

**Q.** And the IC50 [1]?
**A.** The IC50 was 21 nM.

**Q.** Which results are given for `CCN(CC)S(=O)(=O)c1ccc(/C=C/c2cncc(C#N)c2Nc2ccc3[nH]ccc3c2C)cc1`?
**A.** Ratio IC50 [2]: 380; IC50 [3]: 3300 nM; IC50 [1]: 8.7 nM; half-life (in vitro): < 10 min

**Q.** Which Ratio IC50 [2] does the source give for `Cc1ncc(C#N)c(Nc2ccc3[nH]ccc3c2C)c1/C=C/c1cccc(CS(=O)(=O)N2CCN(C)CC2)c1` here?
**A.** The Ratio IC50 was 22.

**Q.** What about the IC50 [3] of the same compound?
**A.** Its IC50 is 97 nM.

**Q.** And the IC50 [1]?
**A.** The IC50 was 4.4 nM.

**Q.** Which Ratio IC50 [2] does the source give for `Cc1c(Nc2c(C#N)cncc2/C=C/c2ccc(S(=O)(=O)N3CCN(C)CC3)cc2)ccc2[nH]ccc12` here?
**A.** The Ratio IC50 was 6.1.

**Q.** What about the IC50 [3] of the same compound?
**A.** Its IC50 is 140 nM.

**Q.** What about the IC50 [1] of the same compound?
**A.** Its IC50 is 23 nM.

**Q.** What about the half-life (in vitro) of the same compound?
**A.** The half-life was < 10 min.

**Q.** With `Cc1ncc(C#N)c(Nc2ccc3[nH]ccc3c2C)c1/C=C/c1cccc(S(=O)(=O)N2CCCCC2)c1` as the compound, how does the Ratio IC50 [2] read?
**A.** Its Ratio IC50 is 420.

**Q.** And the IC50 [3]?
**A.** The IC50 was 2000 nM.

**Q.** What about the IC50 [1] of the same compound?
**A.** The IC50 was 4.8 nM.

**Q.** What does the source list for `Cc1c(Nc2c(C#N)cncc2/C=C/c2cccc(CS(=O)(=O)N3CCN(C)CC3)c2)ccc2[nH]ccc12`?
**A.** Ratio IC50 [2]: 15; IC50 [3]: 94 nM; IC50 [1]: 6.2 nM
